Earlier results in patent US20210017202A1, “SPHINGOMYELIN-DERIVED LIPID AND METHOD FOR PRODUCING SAME” (NOF CORPORATION, priority 2018, published 2021).

Settings: liposome with cholesterol

amount hydrolyzed (aqueous solution at pH2, 4 hr) | amount of hydrolysate (aqueous solution at pH2, after 20 hr) | Compound
about 40% |  | CCCCCCCCCCCCCCCCCC(=O)OC[C@H](COP(=O)([O-])OCC[N+](C)(C)C)OC(=O)CCCCCCCCCCCCCCCCC [distearoylglycerophosphocholine]
 | less than 5% | sphingomyelin
